Data: patent publication US20110117055A1, “Methods of Treating Hepatitis C Virus with Oxoacetamide Compounds” (priority 2009, published 2011)
“Also recorded” adds a separate entry of the source. Where two headings read alike, the source gives them in different places.

Columns and labels:
[1] = tested on: Jc1-luc virus; test: Synergy testing (Combination Index) in Jc1-luc system; assay type: cell-based, HCV genotype-2a
Method: Luciferase compound activity assay. Cell culture and luciferase compound assays were performed as previously described. See Wyles et al., J. Virol. 2007, 81:3005-8; Wyles et al., Antimicrob Agents Chemother. 2009, 53:2660-2; Grünberger et al., J. Infect. Dis. 2008, 197:42-5; Wyles et al., Antimicrob Agents Chemother, 2008, 52:1862-4. Briefly, Huh7.5.1 cells were seeded into 96-well plates at a density of 10,000 cells per well in 100 μl medium. After incubating overnight for attachment, Jc1-luc virus at an MOI 0.01 was added to wells with or without compounds at the specified concentrations. All conditions were run in triplicate. After 24 hours, medium was aspirated and replaced with 100 μl of complete medium containing an identical concentration of compound(s) followed by additional 48 hour incubation. The luciferase assay (Bright-Glo; Promega) was carried out according to the manufacturer's instructions. Luciferase activity was determined using a microplate luminometer (Veritas microplate luminometer; Turner Biosystems). The relative light units (RLU) for each condition were reported as the mean±the standard error of the mean for the three wells.
Synergy testing. The 50% effective concentration (EC50) of Compound 5 and other anti-HCV compounds was determined independently and used to set the range of concentrations for synergy experiments.
Data analysis. Determinations of compound interactions were quantified based on the median-effect principle described by Chou and Talalay. Chou T., Talalay P., Adv. Enzyme. Regul., 1984, 22:27-55. Combination indices (CIs) were determined using Calcusyn (Biosoft) for each experiment at the EC50, EC75, and EC90 levels. Five replicates per condition were evaluated. A CI<0.9 was considered synergistic, a CI≧0.9 and ≦[…] was considered additive, and a CI>1.1 was deemed antagonistic.

[2] = tested on: HCV genotype 1b subgenomic replicon; test: HCV replicon assay (HCV1b replicon cells, NS5A ELISA); assay type: cell-based; details: 3 days
Method: Alternatively, Hut1b cells (Huh7 cells stably replicating HCV genotype 1b subgenomic replicon) were treated with serial dilutions of the test compound for 72 hours. Replication efficiency was monitored by ELISA assay using anti-HCV NS5A monoclonal antibody (Virogen).
Increasing amounts of compound were inoculated onto HCV1b replicon cells and incubated for 3 days. Following incubation, HCV replication was monitored with NS5A protein expression by ELISA.

[3] = tested on: HCV2aChLuc (NS3:A156S); test: Infectivity of protease mutant virus versus wild type in the presence of compounds; assay type: cell-based, HCV genotype 2a; details: HCV2aChLuc (NS3:A156S) vs wild type HCV2aChLuc
Text: Therefore, we introduced A156S mutation in the backbone of HCV2aChLuc genome and investigated the infectivity of the mutant virus in the presence of compounds.

[4] = tested on: HCV2aCh (E2:G451R) mutant virus; test: E2:G451R mutant virus, immuno-fluorescence read-out; assay type: cell-based, HCV genotype 2a
Method: IF analysis: Following aspiration of supernatant from a 24-well plate, 1 ml of ice cold methanol was added to each well and the plate was stored overnight at −20° C. The following day, methanol was removed and the plates were air-dried at room temperature for about 30 minutes. The plate was then rinsed/rehydrated with two washes of PBS (˜5 minutes/wash). To block non-specific antibody binding, cells were incubated in blocking buffer (1% BSA, 0.2% skim milk in PBS) for 1 hour at room temperature. Primary antibody (mouse anti-HCV Core; Affinity BioReagents, MA1-080) was diluted 1:1000 in PBS+0.1% Tween-20 and incubated overnight at 4° C. on rocker (˜200 μl of antibody/well). The next day, wells were washed with PBS (three washes of 5 minutes each) and then incubated for 30 minutes at room temperature with a secondary antibody: goat anti-mouse_AlexaFluor488 (1:1000 dilution in PBS/Tween; Molecular Probes/Invitrogen #A11001). The cells were then washed with PBS three times (5 minutes each), including once with Hoechst dye (0.4 ug/ml; Molecular Probes/Invitrogen #H3570) to counterstain the nuclei of cells. Immunofluorescence staining was analyzed using 10× objective on a Zeiss fluorescent microscope.

[5] = tested on: HCV1a/2a chimeric virus; test: HCV entry assay with HCV1a/2a chimeric virus; assay type: cell-based, HCV genotype 1a; details: compared with HCV2a chimeric virus
Text: Since HCV genotype 1 is the most prevalent genotype among the variants of HCV, we constructed an HCV1a/2a chimeric infectious clone with two cell-culture adaptive mutations introduced. Sequences for the structural proteins (including C, E1, and E2), p7, and NS2 were derived from HCV genotype 1a H77 strain. The rest of nonstructural proteins (NS3 to NS5B) and 3′ NTR were derived from HCV genotype 2a JFH strain. 5′NTR was originated from HCV2aJ6 (FIG. 7). […] Therefore, both HCV1a/2aCh virus and HCV1a/2aChLuc virus with Y361H and Q1251L mutations were successively produced in Huh7 cells and used for HCV entry assay.

[6] = tested on: HCV2aChLuc virus; test: In vitro HCVcc entry assay: HCV2aChLuc virus infection of Huh7 cells, Renilla luciferase read-out; assay type: cell-based, HCV genotype 2a; details: for IC50: Hepatitis C virus
[7] = tested on: SR-B1 pathway; details: cited from earlier work
[8] = tested on: HCV1a chimeric virus and 2a chimeric virus; test: Combination of viral entry inhibitor with ribavirin; assay type: cell-based, HCV; details: ribavirin 15 μM
Method: Varying amounts of each compound were coincubated with a high concentration of ribavirin (15 μM).

[9] = tested on: Bovine viral diarrhea virus (BVDV); test: BVDV plaque-forming assay in MDBK cells; assay type: cell-based; details: even at 1 μM
Method: Bovine viral diarrhea virus (BVDV) is a closely related virus to HCV, belonging to the same Family, Flaviviridae. To validate the specificity of antiviral activity, BVDV infection was done with MDBK cells in the presence of compounds provided herein. MDBK cells (70 to 80% confluent) were infected with a diluted virus. Following 1 h of adsorption at 37° C., cells were washed once with DMEM, overlaid with 1.5% low-melting-point (LMP) agarose (Gibco-BRL) in MEM containing 5% HS, and incubated at 37° C. To assay for plaque-forming virus, after 3 days monolayers were fixed with 3.7% formaldehyde for 2 h at room temperature, the agarose plugs were removed, and the monolayers were stained with crystal violet.

COc1c(NC(=O)C(=O)c2ccc(OCCN3CCOCC3)c3ccccc23)cc(C(C)(C)C)cc1NS(C)(=O)=O [Compound 5, N-(5-tert-butyl-2-methoxy-3-(methylsulfonamido)phenyl)-2-(4-(2-morpholinoethoxy)naphthalen-1-yl)-2-oxoacetamide]
antagonism with any compound studied [1]: not antagonistic
Combination Index (CI) with 2′-C-methyladenosine ([1]; at 50% effective dose (ED50)): 1.09
Combination Index (CI) with BILN2061 ([1]; at 50% effective dose (ED50)): 0.98
Combination Index (CI) with interferon-alpha ([1]; at 50% effective dose (ED50)): 1.00
interaction with VX1 ([1]; at ED50, ED75 and ED90): consistent synergy
interaction with all compounds tested ([1]; at ED75 and ED90): synergy
effect on HCV replication (NS5A protein expression by ELISA) [2]: did not measurably inhibit; also recorded: no measurable effect
resistance of NS3:A156S mutant virus versus wild type (inhibition of infectivity) [3]: no significant difference
sensitivity of E2 mutant relative to wild-type virus, immuno-fluorescence [4]: more resistant
inhibition of HCV1a chimeric virus [5]: inhibited
IC50 ([6]; Huh-7, 72 h, read-out: observed IC50, Huh7 cells co-incubated with HCV2aChRluc virus and compound for 3 days, repeated assays (n>30)): 50 to 500 pM
IC50 ([6]; Huh-7, read-out: Activity class (IC50), tested according to the method of Example 3): < 5000 pM
inhibitory effect on HCV2aChLuc viral entry ([6]; Huh7 cells, 3 days): dose-dependent inhibitory effect; also recorded: dose-dependent inhibition
HDL levels ([7]; mice with a knock-out in the SR-B1 gene): not
HDL levels ([7]; mice): raised HDL levels
effect of combination with ribavirin [8]: no antagonistic effect
inhibitory effect on BVDV infection [9]: No significant inhibitory effect
